In patent publication US20240074968A1, “ORAL PHARMACEUTICAL COMPOSITION AND METHOD FOR PRODUCING PARTICULATE FORMULATION COMPRISING COMPOSITION” (Sunsho Pharmaceutical Co., Ltd., priority 2016, published 2024):

Assay: Solubility in water at 20° C.
Assay type: physicochemical
From the text: The above hydrophobic liquid (B) is a hydrophobic liquid that can dissolve or disperse well the above active ingredient (A) and is not a surfactant. In this case, the “hydrophobicity” of this hydrophobic liquid (B) should disperse as liquid particles containing the active ingredient (A), without dissolving into the water-based composition containing the water-soluble polymer substance (C) and the excipient (D) described below. […] When this “hydrophobicity” is insufficient, it becomes difficult to remain dispersed in the composition while containing the above active ingredient (A), and all or much of the active ingredient (A) becomes contained in the composition as crystals, which makes it impossible to achieve the purpose of the present invention.

solubility in water at 20° C.: exceeding 10 mass %
Structure (SMILES): CC(O)CO (stereo not shown) [propylene glycol]
